Test results: ChEMBL document CHEMBL4680243, “N-benzyl 4,4-disubstituted piperidines as a potent class of influenza H1N1 virus inhibitors showing a novel mechanism of hemagglutinin fusion peptide interaction” (Eur J Med Chem, 2020)
Active and inactive are the calls of the source. No cut-off for these calls is given here.

What was measured:
[1] = Cytotoxicity against MDCK cells assessed as reduction in cell viability measured after 72 hrs by MTS assay; assay type: cell-based, Canis lupus familiaris; settings: dog
Influenza A virus [2] = assay: Antiviral activity against Influenza A virus (A/PR 8/34 (H1N1)) infected in MDCK cells assessed as reduction in virus-induced cytopathic effect measured after 72 hrs by MTS assay; assay type: functional, organism-based; settings: A/Puerto Rico/8/1934(H1N1)
[3] = Cytotoxicity against MDCK cells assessed as change in cell morphology measured after 72 hrs by microscopic analysis; assay type: cell-based, Canis lupus familiaris; settings: dog
Influenza A virus [4] = assay: Antiviral activity against Influenza A virus (A/PR 8/34 (H1N1)) infected in MDCK cells assessed as reduction in virus-induced cytopathic effect measured after 72 hrs by microscopic analysis; assay type: functional, organism-based; settings: A/Puerto Rico/8/1934(H1N1)
[5] = Selectivity index, ratio of CC50 for MDCK cells to EC50 for antiviral activity against Influenza A virus (A/Puerto Rico/8/1934(H1N1)) infected in MDCK cells; assay type: toxicity, cell-based; settings: dog, read-out: Ratio CC50/EC50
[6] = biological target: T1, Cathepsin F (Homo sapiens) (UniProt Q9UBX1); assay: Inhibition of recombinant human cathepsin F expressed in baculovirus infected insect cells using Z-Phe-Arg-AMC as substrate preincubated for 15 mins followed by substrate addition and measured for 60 mins by fluorescence assay; settings: time 75.0 min
T1 sequence (whole entry): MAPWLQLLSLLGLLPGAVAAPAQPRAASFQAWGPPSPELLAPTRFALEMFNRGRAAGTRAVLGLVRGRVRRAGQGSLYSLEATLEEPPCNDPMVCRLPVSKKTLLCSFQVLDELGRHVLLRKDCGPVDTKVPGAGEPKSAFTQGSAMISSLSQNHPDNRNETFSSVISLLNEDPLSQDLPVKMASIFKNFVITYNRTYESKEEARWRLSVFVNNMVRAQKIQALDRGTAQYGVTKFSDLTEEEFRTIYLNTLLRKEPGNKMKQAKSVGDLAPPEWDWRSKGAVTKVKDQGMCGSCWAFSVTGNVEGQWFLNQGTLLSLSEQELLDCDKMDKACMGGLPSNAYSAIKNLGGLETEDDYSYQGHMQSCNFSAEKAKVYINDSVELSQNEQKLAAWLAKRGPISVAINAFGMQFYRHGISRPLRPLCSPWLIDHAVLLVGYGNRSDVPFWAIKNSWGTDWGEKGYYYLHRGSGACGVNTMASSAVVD

Trypsin (Homo sapiens) [7] = biological target: T2, Trypsin (Homo sapiens) (UniProt P07477+P07478+P35030); assay: Inhibition of human trypsin using Boc-Gln-Ala-Arg-AMC as substrate preincubated for 15 mins followed by substrate addition and measured for 60 mins by fluorescence assay; assay type: protein assay; settings: time 75.0 min
[8] = biological target: Cathepsin B (Homo sapiens) (UniProt P07858); assay: Inhibition of human liver cathepsin B using Z-Phe-Arg-AMC as substrate preincubated for 15 mins followed by substrate addition and measured for 60 mins by fluorescence assay; settings: time 75.0 min
[9] = biological target: T3, Transmembrane protease serine 11D (Homo sapiens) (UniProt O60235); assay: Inhibition of recombinant human N-terminal His-tagged HAT (Ala42 to Ile418 residues) expressed in mouse NSO cells using Boc-Gln-Ala-Arg-AMC as substrate preincubated for 15 mins followed by substrate addition and measured for 60 mins by fluorescence assay; settings: time 75.0 min
T3 sequence (whole entry): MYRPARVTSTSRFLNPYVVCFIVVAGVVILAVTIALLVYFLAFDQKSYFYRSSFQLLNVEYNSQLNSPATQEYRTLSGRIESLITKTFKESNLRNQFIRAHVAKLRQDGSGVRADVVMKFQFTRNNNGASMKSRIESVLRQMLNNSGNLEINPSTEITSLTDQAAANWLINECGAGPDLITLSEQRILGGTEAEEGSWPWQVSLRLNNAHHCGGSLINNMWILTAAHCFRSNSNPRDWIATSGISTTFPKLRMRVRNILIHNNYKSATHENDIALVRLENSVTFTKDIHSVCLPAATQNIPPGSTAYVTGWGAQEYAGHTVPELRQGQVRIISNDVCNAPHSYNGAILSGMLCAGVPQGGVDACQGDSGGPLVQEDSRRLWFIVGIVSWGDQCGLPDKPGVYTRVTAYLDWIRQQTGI

[10] = biological target: Procathepsin L (Homo sapiens) (UniProt P07711); assay: Inhibition of human liver cathepsin L using Z-Phe-Arg-AMC as substrate preincubated for 15 mins followed by substrate addition and measured for 60 mins by fluorescence assay; settings: time 75.0 min
Trypsin (Homo sapiens) [11] = biological target: T2, Trypsin (Homo sapiens); assay: Inhibition of human trypsin at 1 uM using Boc-Gln-Ala-Arg-AMC as substrate preincubated for 15 mins followed by substrate addition and measured for 60 mins by fluorescence assay relative to control; assay type: protein assay; settings: time 75.0 min
[12] = biological target: T3, Transmembrane protease serine 11D (Homo sapiens); assay: Inhibition of recombinant human N-terminal His-tagged HAT (Ala42 to Ile418 residues) expressed in mouse NSO cells at 1 uM using Boc-Gln-Ala-Arg-AMC as substrate preincubated for 15 mins followed by substrate addition and measured for 60 mins by fluorescence assay relative to control; settings: time 75.0 min
Influenza A virus [13] = assay: Antiviral activity against Influenza A virus (A/PR 8/34 (H1N1)) infected in MDCK cells assessed as reduction in viral RNA synthesis at 20 uM treated at 1 hr post-infection by RT-qPCR analysis; assay type: functional, organism-based; settings: A/Puerto Rico/8/1934(H1N1)
Influenza A virus [14] = assay: Antiviral activity against Influenza A virus (A/PR 8/34 (H1N1)) clone 1 infected in MDCK cells assessed as reduction in virus-induced cytopathic effect measured after 72 hrs by microscopic analysis; assay type: functional, organism-based; settings: A/Puerto Rico/8/1934(H1N1)
Influenza A virus [15] = assay: Antiviral activity against Influenza A virus (A/PR 8/34 (H1N1)) clone 1 infected in MDCK cells assessed as reduction in virus-induced cytopathic effect measured after 72 hrs by MTS assay; assay type: functional, organism-based; settings: A/Puerto Rico/8/1934(H1N1)
Influenza A virus [16] = assay: Antiviral activity against Influenza A virus (A/PR 8/34 (H1N1)) infected in MDCK cells assessed as reduction in viral RNA synthesis at 2 uM treated at 5 hrs post-infection by RT-qPCR analysis; assay type: functional, organism-based; settings: A/Puerto Rico/8/1934(H1N1)
[17] = biological target: Hemagglutinin (Influenza A virus (A/Puerto Rico/8/1934(H1N1))) (UniProt P03452); assay: Inhibition of Influenza A virus (A/PR 8/34 (H1N1)) hemagglutinin infected in MDCK cells assessed as reduction in virus binding to cell surface at 200 uM relative to control; assay type: cell-based
[18] = biological target: Cathepsin B (Homo sapiens) (UniProt P07858); assay: Inhibition of human liver cathepsin B at 1 uM using Z-Phe-Arg-AMC as substrate preincubated for 15 mins followed by substrate addition and measured for 60 mins by fluorescence assay; settings: time 75.0 min
[19] = biological target: Procathepsin L (Homo sapiens) (UniProt P07711); assay: Inhibition of human liver cathepsin L at 1 uM using Z-Phe-Arg-AMC as substrate preincubated for 15 mins followed by substrate addition and measured for 60 mins by fluorescence assay; settings: time 75.0 min
[20] = biological target: T1, Cathepsin F (Homo sapiens); assay: Inhibition of recombinant human cathepsin F expressed in baculovirus infected insect cells at 1 uM using Z-Phe-Arg-AMC as substrate preincubated for 15 mins followed by substrate addition and measured for 60 mins by fluorescence assay relative to control; settings: time 75.0 min

Chain of Procathepsin L (Homo sapiens) (P07711 114-333 limits assumed): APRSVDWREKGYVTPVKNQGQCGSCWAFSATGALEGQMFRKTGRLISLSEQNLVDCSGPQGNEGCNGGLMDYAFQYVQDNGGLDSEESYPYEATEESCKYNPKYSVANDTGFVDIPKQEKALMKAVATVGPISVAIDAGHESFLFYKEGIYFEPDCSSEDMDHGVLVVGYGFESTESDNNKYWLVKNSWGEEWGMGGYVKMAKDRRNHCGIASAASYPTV
Chain of Hemagglutinin (Influenza A virus (A/Puerto Rico/8/1934(H1N1))) (P03452 whole entry): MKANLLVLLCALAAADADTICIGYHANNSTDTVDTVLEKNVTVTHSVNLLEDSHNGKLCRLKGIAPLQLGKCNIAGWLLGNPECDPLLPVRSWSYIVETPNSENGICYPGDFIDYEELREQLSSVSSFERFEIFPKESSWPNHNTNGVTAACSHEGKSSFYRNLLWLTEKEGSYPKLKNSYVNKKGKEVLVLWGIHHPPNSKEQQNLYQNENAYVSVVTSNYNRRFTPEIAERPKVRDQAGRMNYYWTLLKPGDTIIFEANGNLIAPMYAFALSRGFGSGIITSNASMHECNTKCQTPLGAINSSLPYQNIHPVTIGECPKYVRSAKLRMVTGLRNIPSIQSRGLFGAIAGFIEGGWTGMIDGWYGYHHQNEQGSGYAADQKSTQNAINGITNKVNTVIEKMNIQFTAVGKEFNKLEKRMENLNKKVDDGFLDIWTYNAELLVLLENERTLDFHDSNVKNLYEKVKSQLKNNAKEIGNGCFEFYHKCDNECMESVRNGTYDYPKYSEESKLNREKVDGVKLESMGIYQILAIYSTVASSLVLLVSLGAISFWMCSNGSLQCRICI

| SMILES | CC50 at 72 h [1] | EC50 (Influenza A virus [2]) | MCC at 72 h [3] | EC50 (Influenza A virus [4]) | selectivity ratio [5] | also measured |
| --- | --- | --- | --- | --- | --- | --- |
| COC(=O)CC[C@H](NC(=O)OC(C)(C)C)C(=O)N(Cc1ccc(F)cc1)C1(C(=O)NCc2ccccc2)CCN(Cc2ccccc2)CC1 | > 100 µM | 10 µM | > 100 µM | 9.8 µM | ≤ 10 |  |
| CC(C)(C)OC(=O)N[C@@H](CC(=O)O)C(=O)N(Cc1ccc(F)cc1)C1(C(=O)NCc2ccccc2)CCNCC1 | 49 µM | > 100 µM | 79 µM | > 100 µM |  | inhibition [6]: inactive; inhibition (Trypsin (Homo sapiens) [7]): inactive; inhibition [8]: inactive; inhibition [9]: inactive; inhibition [10]: inactive |
| CC[C@H](C)[C@H](NC(=O)OCc1ccccc1)C(=O)N(C1CC1)C1(C(=O)NCc2ccccc2)CCN(Cc2ccccc2)CC1 | > 100 µM | 9 µM | > 100 µM | 5.1 µM | 8 |  |
| CN(C)C(=O)COC(=O)Cc1ccc(OC(=O)c2ccc(NC(=N)N)cc2)cc1 |  |  |  |  |  | inhibition (Trypsin (Homo sapiens) [11]): 90%; inhibition [12]: 90% |
| COC(=O)C[C@H](NC(=O)OC(C)(C)C)C(=O)N(Cc1ccc(Cl)cc1)C1(C(=O)NCc2ccccc2)CCN(Cc2ccccc2)CC1 | 63 µM | 1.6 µM | 100 µM | 1.6 µM | ≤ 10 |  |
| CCN(CC)CCCC(C)Nc1ccnc2cc(Cl)ccc12 (configuration not stated) |  |  |  |  |  | Activity (Influenza A virus [13]): Active |
| CC(C)(C)NC(=O)C1(N(C(=O)[C@H](Cc2ccccc2)NC(=O)OC(C)(C)C)C2CC2)CCN(Cc2ccccc2)CC1 | 58 µM | 5.3 µM | 84 µM | 5.8 µM | ≤ 10 |  |
| NC(=O)c1ncn([C@@H]2O[C@H](CO)[C@@H](O)[C@H]2O)n1 [RIBAVIRIN] | 58 µM | 31 µM | 100 µM | 22 µM |  | EC50 (Influenza A virus [14]): 11 µM; EC50 (Influenza A virus [15]): 20 µM |
| Cc1onc(-c2ccccc2)c1C(=O)N1CCN(c2ccc([N+](=O)[O-])cc2Cl)CC1 |  |  |  |  |  | Activity (Influenza A virus [16]): Active |
| COC(=O)C[C@H](NC(=O)OC(C)(C)C)C(=O)N(Cc1cccc(F)c1)C1(C(=O)NCc2ccccc2)CCN(Cc2ccccc2)CC1 | 75 µM | 5.2 µM | 47 µM | 4.1 µM | ≤ 10 |  |
| CCCCCCCCCCCCCCCCCCCCCCOCC(C)(COCCCCCCCCCCCCCCCCCCCCCC)CO[C@]1(C(=O)O)C[C@H](OS(=O)(=O)O)[C@@H](NC(C)=O)[C@H]([C@H](O)[C@@H](COS(=O)(=O)O)OS(=O)(=O)O)O1 |  |  |  |  |  | inhibition [17]: 96% |
| CC(C)(C)OC(=O)N[C@@H](CC(N)=O)C(=O)N(Cc1ccc(F)cc1)C1(C(=O)NCc2ccccc2)CCN(Cc2ccccc2)CC1 | > 100 µM | 2.1 µM | > 100 µM | 1.8 µM | 26 | inhibition [6]: inactive; inhibition (Trypsin (Homo sapiens) [7]): inactive; inhibition [8]: inactive; inhibition [9]: inactive; inhibition [10]: inactive |
| COC(=O)C[C@H](NC(=O)OCc1ccccc1)C(=O)N(C1CC1)C1(C(=O)NCc2ccccc2)CCN(Cc2ccccc2)CC1 | 8.1 µM | 1.8 µM | 20 µM | 2 µM | 40 | inhibition [6]: inactive; inhibition (Trypsin (Homo sapiens) [7]): inactive; inhibition [8]: inactive; inhibition [9]: inactive; inhibition [10]: inactive |
| CC[C@H](C)[C@H](NC(=O)OCc1ccccc1)C(=O)N(C1CC1)C1(C(=O)NC(C)(C)C)CCN(Cc2ccccc2)CC1 | 59 µM | 3.9 µM | 100 µM | 4.3 µM | 13 |  |
| CC(C)C[C@H](NC(=O)[C@@H]1C[C@H]1C(=O)O)C(=O)NCCCCNC(=N)N |  |  |  |  |  | inhibition [18]: Active; inhibition [19]: Active; inhibition [20]: 50% |
| COC(=O)C[C@H](NC(=O)OC(C)(C)C)C(=O)N(Cc1ccccc1)C1(C(=O)NCc2ccccc2)CCN(Cc2ccccc2)CC1 | > 100 µM | 10 µM | > 100 µM | 9.3 µM | ≤ 10 |  |
| CC(C)(C)OC(=O)N[C@@H](CC(N)=O)C(=O)N(Cc1ccccc1)C1(C(=O)NCc2ccccc2)CCN(Cc2ccccc2)CC1 | > 100 µM | 6.7 µM | > 100 µM | 6.3 µM | ≤ 10 |  |
| COC(=O)C[C@H](NC(=O)OC(C)(C)C)C(=O)N(Cc1ccccc1F)C1(C(=O)NCc2ccccc2)CCN(Cc2ccccc2)CC1 | 72 µM | 8.7 µM | 20 µM | 9.3 µM | ≤ 10 |  |
| COC(=O)C[C@H](NC(=O)OC(C)(C)C)C(=O)N(Cc1ccc(F)cc1)C1(C(=O)NC(C)(C)C)CCN(Cc2ccccc2)CC1 | 50 µM | > 100 µM | 80 µM | > 100 µM |  |  |
